Where a SMILES comes first, the peptide text is derived from it. Bridges are numbered along the chain shown (N, C = ends). [ ]: non-standard residue; d: D form. The star is where a group is joined. Bip = N[C@@H](Cc1ccc(-c2ccccc2)cc1)C(=O)O; Cha = N[C@@H](CC1CCCCC1)C(=O)O; Carboxymethyl = O=C(O)C*; Nle = CCCC[C@H](N)C(=O)O; Orn = NCCC[C@H](N)C(=O)O; Dab = NCC[C@H](N)C(=O)O; Dap = NC[C@H](N)C(=O)O
Each compound was assayed against T1, human PD-1 / PD-L1-Ig binding on Jurkat cell line over-expressing human PD-1 (Jurkat-PD-1) (Homo sapiens, UniProt Q15116) (assay: Jurkat-PD-1 Cell Binding High-Content Screening Assay (CBA)). Settings: Jurkat-PD-1 cells, PE-labeled PD-L1-Ig 20 nM final; read-out: Jurkat HPD1_PDL1 IC50.
T1 construct: expressed in transfected cells; host or cells: Jurkat
T1 sequence (Q15116 25-288): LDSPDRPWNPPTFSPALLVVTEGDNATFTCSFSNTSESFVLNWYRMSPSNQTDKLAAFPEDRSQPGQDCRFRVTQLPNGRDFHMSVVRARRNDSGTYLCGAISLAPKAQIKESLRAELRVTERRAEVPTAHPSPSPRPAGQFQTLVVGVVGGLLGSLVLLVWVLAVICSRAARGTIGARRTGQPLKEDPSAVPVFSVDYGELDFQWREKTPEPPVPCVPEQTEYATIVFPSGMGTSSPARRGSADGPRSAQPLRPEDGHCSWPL
Type: cell-based
In short: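 Jurkat cells over-expressing human PD-1, in DMEM/10% FCS, pre-incubated with compound 2 h at 37° C. PE-labeled human PD-L1-Ig (20 nM final) added for 1 h; cells fixed in paraformaldehyde with Hoechst 33342 nuclear stain, washed, and bound fluorescence quantified by high-content imaging.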

Row | Compound | IC50 [nM]
1 | CC(C)C[C@@H]1NC(=O)[C@H](CCCCN)NC(=O)[C@@H](CC(C)C)NC(=O)[C@H](CCCN)NC(=O)[C@H](Cc2cnc[nH]2)NC(=O)[C@H](Cc2ccc(-c3ccccc3)cc2)NC(=O)[C@H](C(C)C)NC(=O)[C@H](Cc2c[nH]c3ccccc23)NC(=O)[C@H](CC(=O)O)NC(=O)[C@H](Cc2ccc(O)cc2)NC(=O)[C@H](CC(N)=O)NC(=O)CSC[C@@H](C(=O)NCC(N)=O)NC(=O)[C@H]([C@@H](C)O)NC(=O)[C@H](C(C)C)NC1=O [Compound 1136] ({CH2CO}-NYDWV[Bip]H[Orn][dL]KLVTCG-NH2; thioether N-14) | 50.8
2 | CC(C)C[C@@H]1NC(=O)[C@H](CCCCN)NC(=O)[C@@H](CC(C)C)NC(=O)[C@H](CCN)NC(=O)[C@H](Cc2cnc[nH]2)NC(=O)[C@H](Cc2ccc(-c3ccccc3)cc2)NC(=O)[C@H](C(C)C)NC(=O)[C@H](Cc2c[nH]c3ccccc23)NC(=O)[C@H](CC(=O)O)NC(=O)[C@H](Cc2ccc(O)cc2)NC(=O)[C@H](CC(N)=O)NC(=O)CSC[C@@H](C(=O)N[C@@H](C)C(N)=O)NC(=O)[C@H]([C@@H](C)O)NC(=O)[C@H](C(C)C)NC1=O [Compound 1137] ({CH2CO}-NYDWV[Bip]H[Dab][dL]KLVTCA-NH2; thioether N-14) | 47
3 | CC(C)C[C@@H]1NC(=O)[C@H](CCCCN)NC(=O)[C@@H](CC(C)C)NC(=O)[C@H](CCN)NC(=O)[C@H](Cc2cnc[nH]2)NC(=O)[C@H](Cc2ccc(-c3ccccc3)cc2)NC(=O)[C@H](C(C)C)NC(=O)[C@H](Cc2c[nH]c3ccccc23)NC(=O)[C@H](CC(=O)O)NC(=O)[C@H](Cc2ccc(O)cc2)NC(=O)[C@H](CC(N)=O)NC(=O)CSC[C@@H](C(=O)N[C@@H](C)C(N)=O)NC(=O)[C@H](CO)NC(=O)[C@H](C(C)C)NC1=O [Compound 1138] ({CH2CO}-NYDWV[Bip]H[Dab][dL]KLVSCA-NH2; thioether N-14) | 19.3
4 | CC(C)C[C@@H]1NC(=O)[C@H](CCCCN)NC(=O)[C@@H](CC(C)C)NC(=O)[C@H](CCN)NC(=O)[C@H](Cc2cnc[nH]2)NC(=O)[C@H](Cc2ccc(-c3ccccc3)cc2)NC(=O)[C@H](C(C)C)NC(=O)[C@H](Cc2c[nH]c3ccccc23)NC(=O)[C@H](CC(=O)O)NC(=O)[C@H](Cc2ccc(O)cc2)NC(=O)[C@H](CC(N)=O)NC(=O)CSC[C@@H](C(=O)NCC(N)=O)NC(=O)[C@H](CO)NC(=O)[C@H](C(C)C)NC1=O [Compound 1139] ({CH2CO}-NYDWV[Bip]H[Dab][dL]KLVSCG-NH2; thioether N-14) | 44.4
5 | CC(C)C[C@@H]1NC(=O)[C@H](CCCCN)NC(=O)[C@@H](CC(C)C)NC(=O)[C@H](CCN)NC(=O)[C@H](Cc2cnc[nH]2)NC(=O)[C@H](Cc2ccc(-c3ccccc3)cc2)NC(=O)[C@H](C(C)C)NC(=O)[C@H](Cc2c[nH]c3ccccc23)NC(=O)[C@H](CC(=O)O)NC(=O)[C@H](Cc2ccc(O)cc2)NC(=O)[C@H](CC(N)=O)NC(=O)CSC[C@@H](C(=O)NCC(N)=O)NC(=O)[C@H]([C@@H](C)O)NC(=O)[C@H](C(C)C)NC1=O [Compound 1140] ({CH2CO}-NYDWV[Bip]H[Dab][dL]KLVTCG-NH2; thioether N-14) | 57.7
6 | CC[C@H](C)[C@@H]1NC(=O)[C@H](Cc2ccc(-c3ccccc3)cc2)NC(=O)[C@H](C(C)C)NC(=O)[C@H](Cc2c[nH]c3ccccc23)NC(=O)[C@H](CC(=O)O)NC(=O)[C@H](Cc2ccc(O)cc2)NC(=O)[C@H](CN)NC(=O)CSC[C@@H](C(=O)N[C@@H](C)C(N)=O)NC(=O)[C@H]([C@@H](C)O)NC(=O)[C@H](C(C)C)NC(=O)[C@H](CC(C)C)NC(=O)[C@H](CCCNC(=N)N)NC(=O)[C@@H](CC(C)C)NC(=O)[C@H](CCCN)NC1=O [Compound 1141] ({CH2CO}-[Dap]YDWV[Bip]I[Orn][dL]RLVTCA-NH2; thioether N-14) | 30.6
7 | CC[C@H](C)[C@@H]1NC(=O)[C@H](Cc2ccc(-c3ccccc3)cc2)NC(=O)[C@H](C(C)C)NC(=O)[C@H](Cc2c[nH]c3ccccc23)NC(=O)[C@H](CC(=O)O)NC(=O)[C@H](Cc2ccc(O)cc2)NC(=O)[C@H](Cc2ccc(OCC(=O)O)cc2)NC(=O)CSC[C@@H](C(=O)N[C@@H](C)C(N)=O)NC(=O)[C@H]([C@@H](C)O)NC(=O)[C@H](C(C)C)NC(=O)[C@H](CC(C)C)NC(=O)[C@H](CCCNC(=N)N)NC(=O)[C@@H](CC(C)C)NC(=O)[C@H](CCCN)NC1=O [Compound 1142] ({CH2CO}-Y(Carboxymethyl)YDWV[Bip]I[Orn][dL]RLVTCA-NH2; thioether N-14) | 19.6
8 | CC[C@H](C)[C@@H]1NC(=O)[C@H](Cc2ccc(-c3ccccc3)cc2)NC(=O)[C@H](C(C)C)NC(=O)[C@H](Cc2c[nH]c3ccccc23)NC(=O)[C@H](CC(=O)O)NC(=O)[C@H](Cc2ccc(O)cc2)NC(=O)[C@H](CC(N)=O)NC(=O)CSC[C@@H](C(=O)N[C@@H](C)C(N)=O)NC(=O)[C@H]([C@@H](C)O)NC(=O)[C@H](C(C)C)NC(=O)[C@H](CC(C)C)NC(=O)[C@H](CCCNC(=N)N)NC(=O)[C@@H](CC(C)C)NC(=O)[C@H](CCCN)NC1=O [Compound 1143] ({CH2CO}-NYDWV[Bip]I[Orn][dL]RLVTCA-NH2; thioether N-14) | 15.8
9 | CC[C@H](C)[C@@H]1NC(=O)[C@H](Cc2ccc(-c3ccccc3)cc2)NC(=O)[C@H](C(C)C)NC(=O)[C@H](Cc2c[nH]c3ccccc23)NC(=O)[C@H](CC(=O)O)NC(=O)[C@H](Cc2ccc(O)cc2)NC(=O)[C@H](Cc2ccccc2)NC(=O)CSC[C@@H](C(=O)N[C@@H](C)C(N)=O)NC(=O)[C@H]([C@@H](C)O)NC(=O)[C@H](C(C)C)NC(=O)[C@H](CC(C)C)NC(=O)[C@H](CCCNC(=N)N)NC(=O)[C@@H](CC(C)C)NC(=O)[C@H](CCCN)NC1=O [Compound 1144] ({CH2CO}-FYDWV[Bip]I[Orn][dL]RLVTCA-NH2; thioether N-14) | 19.2
10 | CC[C@H](C)[C@@H]1NC(=O)[C@H](Cc2ccc(-c3ccccc3)cc2)NC(=O)[C@H](C(C)C)NC(=O)[C@H](Cc2c[nH]c3ccccc23)NC(=O)[C@H](CC(=O)O)NC(=O)[C@H](Cc2ccc(O)cc2)NC(=O)[C@H](CN)NC(=O)CSC[C@@H](C(=O)N[C@@H](C)C(N)=O)NC(=O)[C@H]([C@@H](C)O)NC(=O)[C@H](C(C)C)NC(=O)[C@H](CC2CCCCC2)NC(=O)[C@H](CCCNC(=N)N)NC(=O)[C@@H](CC(C)C)NC(=O)[C@H](CCCN)NC1=O [Compound 1145] ({CH2CO}-[Dap]YDWV[Bip]I[Orn][dL]R[Cha]VTCA-NH2; thioether N-14) | 8.7
11 | CC[C@H](C)[C@@H]1NC(=O)[C@H](Cc2ccc(-c3ccccc3)cc2)NC(=O)[C@H](C(C)C)NC(=O)[C@H](Cc2c[nH]c3ccccc23)NC(=O)[C@H](CC(=O)O)NC(=O)[C@H](Cc2ccc(O)cc2)NC(=O)[C@H](Cc2ccc(OCC(=O)O)cc2)NC(=O)CSC[C@@H](C(=O)N[C@@H](C)C(N)=O)NC(=O)[C@H]([C@@H](C)O)NC(=O)[C@H](C(C)C)NC(=O)[C@H](CC2CCCCC2)NC(=O)[C@H](CCCNC(=N)N)NC(=O)[C@@H](CC(C)C)NC(=O)[C@H](CCCN)NC1=O [Compound 1146] ({CH2CO}-Y(Carboxymethyl)YDWV[Bip]I[Orn][dL]R[Cha]VTCA-NH2; thioether N-14) | 42.3
12 | CC[C@H](C)[C@@H]1NC(=O)[C@H](Cc2ccc(-c3ccccc3)cc2)NC(=O)[C@H](C(C)C)NC(=O)[C@H](Cc2c[nH]c3ccccc23)NC(=O)[C@H](CC(=O)O)NC(=O)[C@H](Cc2ccc(O)cc2)NC(=O)[C@H](CC(N)=O)NC(=O)CSC[C@@H](C(=O)N[C@@H](C)C(N)=O)NC(=O)[C@H]([C@@H](C)O)NC(=O)[C@H](C(C)C)NC(=O)[C@H](CC2CCCCC2)NC(=O)[C@H](CCCNC(=N)N)NC(=O)[C@@H](CC(C)C)NC(=O)[C@H](CCCN)NC1=O [Compound 1147] ({CH2CO}-NYDWV[Bip]I[Orn][dL]R[Cha]VTCA-NH2; thioether N-14) | 22.7
13 | CC[C@H](C)[C@@H]1NC(=O)[C@H](Cc2ccc(-c3ccccc3)cc2)NC(=O)[C@H](C(C)C)NC(=O)[C@H](Cc2c[nH]c3ccccc23)NC(=O)[C@H](CC(=O)O)NC(=O)[C@H](Cc2ccc(O)cc2)NC(=O)[C@H](Cc2ccccc2)NC(=O)CSC[C@@H](C(=O)N[C@@H](C)C(N)=O)NC(=O)[C@H]([C@@H](C)O)NC(=O)[C@H](C(C)C)NC(=O)[C@H](CC2CCCCC2)NC(=O)[C@H](CCCNC(=N)N)NC(=O)[C@@H](CC(C)C)NC(=O)[C@H](CCCN)NC1=O [Compound 1148] ({CH2CO}-FYDWV[Bip]I[Orn][dL]R[Cha]VTCA-NH2; thioether N-14) | 51
14 | CCCC[C@@H]1NC(=O)[C@H](CCCNC(=N)N)NC(=O)[C@@H](CC(C)C)NC(=O)[C@H](CCCN)NC(=O)[C@H]([C@@H](C)CC)NC(=O)[C@H](Cc2ccc(-c3ccccc3)cc2)NC(=O)[C@H](C(C)C)NC(=O)[C@H](Cc2c[nH]c3ccccc23)NC(=O)[C@H](CC(=O)O)NC(=O)[C@H](Cc2ccc(O)cc2)NC(=O)[C@H](CN)NC(=O)CSC[C@@H](C(=O)N[C@@H](C)C(N)=O)NC(=O)[C@H]([C@@H](C)O)NC(=O)[C@H](C(C)C)NC1=O [Compound 1149] ({CH2CO}-[Dap]YDWV[Bip]I[Orn][dL]R[Nle]VTCA-NH2; thioether N-14) | 47
15 | CCCC[C@@H]1NC(=O)[C@H](CCCNC(=N)N)NC(=O)[C@@H](CC(C)C)NC(=O)[C@H](CCCN)NC(=O)[C@H]([C@@H](C)CC)NC(=O)[C@H](Cc2ccc(-c3ccccc3)cc2)NC(=O)[C@H](C(C)C)NC(=O)[C@H](Cc2c[nH]c3ccccc23)NC(=O)[C@H](CC(=O)O)NC(=O)[C@H](Cc2ccc(O)cc2)NC(=O)[C@H](Cc2ccc(OCC(=O)O)cc2)NC(=O)CSC[C@@H](C(=O)N[C@@H](C)C(N)=O)NC(=O)[C@H]([C@@H](C)O)NC(=O)[C@H](C(C)C)NC1=O [Compound 1150] ({CH2CO}-Y(Carboxymethyl)YDWV[Bip]I[Orn][dL]R[Nle]VTCA-NH2; thioether N-14) | 48.9

From US20250163104A1, “MACROCYCLIC IMMUNOMODULATORS” (priority 2021, published 2025)
